These are literature values, as cited in patent US20030232078A1, “Formulation & dosage form for the controlled delivery of therapeutic agents” (priority 2001, published 2003).

The conditions of this data set: conventional formulations; well known.

Consider `C[C@@](Cc1ccc(O)c(O)c1)(NN)C(=O)O` [carbidopa], for which the “absorption in the lower GI tract” value was “not absorbed in significant amounts”. `CS(=O)(=O)Nc1ccc(F)c([C@@H](O)CN)c1.Cl` [ABT-232]: the “absorption in the lower GI tract” value is “not absorbed in significant amounts”. Take `N[C@@H](Cc1ccc(O)c(O)c1)C(=O)O` [L-dopa]: the “absorption in the lower GI tract” value was “not absorbed in significant amounts”.
